From patent publication US20190274334A1 (MARS, INCORPORATED, priority 2016, published 2019)
Where two headings read alike, the source gives them in different places.

Columns and labels:
[1] = system: feline umami (T1R1/T1R3) receptor; details: cited from earlier work
Human CaSR = biological target: T1, Human CaSR (Homo sapiens, UniProt P41180); details: Yes/No; cited from earlier work
T1 sequence (P41180 20-1078): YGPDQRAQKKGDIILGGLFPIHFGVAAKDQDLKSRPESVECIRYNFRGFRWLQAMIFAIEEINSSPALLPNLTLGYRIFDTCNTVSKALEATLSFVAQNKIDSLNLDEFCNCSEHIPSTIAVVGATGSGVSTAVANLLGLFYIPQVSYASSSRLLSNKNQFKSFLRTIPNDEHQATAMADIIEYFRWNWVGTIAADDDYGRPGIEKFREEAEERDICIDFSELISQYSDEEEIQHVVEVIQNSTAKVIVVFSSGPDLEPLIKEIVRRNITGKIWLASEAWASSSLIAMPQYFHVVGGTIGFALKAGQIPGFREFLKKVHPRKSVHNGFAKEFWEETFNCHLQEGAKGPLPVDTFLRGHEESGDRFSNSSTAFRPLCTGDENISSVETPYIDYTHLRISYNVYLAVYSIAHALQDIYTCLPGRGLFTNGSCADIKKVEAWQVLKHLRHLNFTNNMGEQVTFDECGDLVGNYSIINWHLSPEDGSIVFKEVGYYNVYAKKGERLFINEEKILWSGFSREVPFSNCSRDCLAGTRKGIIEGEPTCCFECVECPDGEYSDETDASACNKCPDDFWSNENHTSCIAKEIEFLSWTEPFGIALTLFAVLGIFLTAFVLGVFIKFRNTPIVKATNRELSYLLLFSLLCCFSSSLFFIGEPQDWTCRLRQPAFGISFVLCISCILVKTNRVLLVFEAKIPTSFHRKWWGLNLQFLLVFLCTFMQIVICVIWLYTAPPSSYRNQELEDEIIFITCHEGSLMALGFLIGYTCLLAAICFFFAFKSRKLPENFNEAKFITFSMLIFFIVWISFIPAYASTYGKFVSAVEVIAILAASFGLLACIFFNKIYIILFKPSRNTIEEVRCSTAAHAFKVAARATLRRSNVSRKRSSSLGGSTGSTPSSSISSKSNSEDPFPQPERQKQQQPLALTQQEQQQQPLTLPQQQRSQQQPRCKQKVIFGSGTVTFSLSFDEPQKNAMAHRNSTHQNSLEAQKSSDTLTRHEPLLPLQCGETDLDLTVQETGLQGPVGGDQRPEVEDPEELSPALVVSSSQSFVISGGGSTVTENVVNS

feline CaSR (f:CaSR) = feline CaSR (f:CaSR) (Felis catus, UniProt A0ABI7YY68); experiment: cell-based; type: cell-based
Chain of feline CaSR (f:CaSR) (A0ABI7YY68 entry or part of it): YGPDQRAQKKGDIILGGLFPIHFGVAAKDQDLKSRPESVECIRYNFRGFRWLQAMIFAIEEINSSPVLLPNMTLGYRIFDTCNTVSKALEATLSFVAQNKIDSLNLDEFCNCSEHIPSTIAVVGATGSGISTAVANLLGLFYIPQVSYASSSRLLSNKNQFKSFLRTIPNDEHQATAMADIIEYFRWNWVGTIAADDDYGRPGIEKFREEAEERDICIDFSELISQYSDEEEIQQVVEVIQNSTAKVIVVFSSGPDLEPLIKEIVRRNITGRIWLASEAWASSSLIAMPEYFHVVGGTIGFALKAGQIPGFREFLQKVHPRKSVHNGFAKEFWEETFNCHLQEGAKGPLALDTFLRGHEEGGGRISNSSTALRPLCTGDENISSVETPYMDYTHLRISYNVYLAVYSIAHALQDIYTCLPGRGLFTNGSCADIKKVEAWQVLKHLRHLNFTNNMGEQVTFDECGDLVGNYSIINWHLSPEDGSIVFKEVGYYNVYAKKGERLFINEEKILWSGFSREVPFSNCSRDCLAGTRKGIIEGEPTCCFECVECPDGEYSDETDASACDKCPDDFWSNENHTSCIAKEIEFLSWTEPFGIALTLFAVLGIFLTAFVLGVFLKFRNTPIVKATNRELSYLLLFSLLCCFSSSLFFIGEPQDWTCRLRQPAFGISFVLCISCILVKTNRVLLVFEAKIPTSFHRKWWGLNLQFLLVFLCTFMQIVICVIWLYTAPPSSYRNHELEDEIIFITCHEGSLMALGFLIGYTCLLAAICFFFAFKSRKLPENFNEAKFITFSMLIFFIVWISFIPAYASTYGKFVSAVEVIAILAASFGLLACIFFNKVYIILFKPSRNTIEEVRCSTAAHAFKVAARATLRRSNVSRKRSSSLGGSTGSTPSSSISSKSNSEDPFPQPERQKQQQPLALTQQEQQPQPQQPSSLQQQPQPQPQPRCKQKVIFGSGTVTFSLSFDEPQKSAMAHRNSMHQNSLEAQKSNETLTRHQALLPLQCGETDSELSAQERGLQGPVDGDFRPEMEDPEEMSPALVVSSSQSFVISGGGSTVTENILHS

Row | SMILES | Comments: Umami-active for cats [1] | Human CaSR agonist (Human CaSR) | Feline CaSR agonist (feline CaSR (f:CaSR); Yes/No) | Feline CaSR agonist (feline CaSR (f:CaSR))
1 | N[C@@H](Cc1c[nH]cn1)C(=O)O [L-histidine] | Umami-active | Yes | do not activate and No | 
2 | C[C@H](N)C(=O)O [L-alanine] | Umami-active | Yes | do not activate and No | 
3 | NCCCCN [Putrescine] |  | Yes |  | No
